Source: paper PMC11062899, “De novo development of small cyclic peptides that are orally bioavailable” (Nature Chemical Biology, 2023)
“And” between values parts separate entries of the source, which are not always exact repeats. Identical values can stand only once. Like-named read-outs stand apart in the source and are kept apart here.

Columns and labels:
[1] = Metabolic stability in rat liver microsomes (RLMs); conditions: for TIC value of compound, metabolic stability RLM: replicates R1-R3; for microsomal CLint / half-life: rat
rat α-thrombin = target: T1, rat α-thrombin (Rattus norvegicus, UniProt P18292); experiment: Protease inhibition, Ki for rat α-thrombin (fluorogenic substrate Z-Gly-Gly-Arg-AMC); assay type: biochemical; conditions: for Slope normalized to DMSO (proteolytic substrate cleavage over time): replicates R1-R3
T1 construct: rat α-thrombin (Molecular Innovations) were used at final concentrations of 2 nM and 3 nM; purchased Molecular Innovations
Procedure, shortened: (§1)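 Ki derived through Cheng–Prusoff from IC50s (four-parameter logistic fit) against activity of peptide-free controls. Product fluorescence was read every 3 min over 30 min at 25 °C, substrate Z-Gly-Gly-Arg-AMC at 50 μM. Enzyme was 2 nM human or 3 nM rat α-thrombin, pH 7.4 buffer.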

[2] = Passive artificial membrane permeability (PAMPA)
human α-thrombin = human α-thrombin (Homo sapiens, UniProt P00734); experiment: Protease inhibition, Ki for human α-thrombin (fluorogenic substrate Z-Gly-Gly-Arg-AMC); assay type: biochemical; conditions: for Slope normalized to DMSO (proteolytic substrate cleavage over time): replicates R1-R3
Procedure, shortened: as §1

porcine pancreatin = experiment: Peptide stability in simulated intestinal fluid (SIF); assay type: in vitro ADME; conditions: after 8 h vs 0 h (TIC)
Procedure, shortened: (§2)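 Peptide from a 1 mM DMSO stock was added to fluid pre-warmed at 37 °C. SGF was pH 1.2 NaCl with porcine pepsin (0.32 g per 100 ml), and SIF was pH 6.8 potassium phosphate with porcine pancreatin (1 g per 100 ml). Supernatant peptide was quantified by LC–MS, with residual expressed as T1/T0.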

[3] = as above; assay type: in vitro ADME, porcine; conditions: simulated gi fluid; 8 h, 37 °C, pH 6.8; read-out: Proteolytic stability: SIF (8 h) % remaining
Procedure, shortened: as §2

## O=C1C[C@H]2CCCN2C(=O)[C@H](Cc2ccccc2)NC(=O)[C@@H](NC(=O)c2ccc(Cl)s2)CSC/C=C/CSCCN1 [peptide 32]
[1]; 0 min
  TIC value of compound, metabolic stability RLM: 4102350 (2×) and 4260631
[1]; 5 min
  TIC value of compound, metabolic stability RLM: 2223511 and 2018425 and 2686035
[1]; 15 min
  TIC value of compound, metabolic stability RLM: 283425 and 185564 and 435364
[1]; 30 min
  TIC value of compound, metabolic stability RLM: 0 (2×) and 35161
[1]; 60 min
  TIC value of compound, metabolic stability RLM: 0
[1]; rat liver microsomes, 0 min, replicate R1
  TIC value of compound, 0 min, R1: 4102350
[1]; rat liver microsomes, 0 min, replicate R3
  TIC value of compound, 0 min, R3: 4260631
[1]; rat liver microsomes, 5 min, replicate R1
  TIC value of compound, 5 min, R1: 2223511
[1]; rat liver microsomes, 5 min, replicate R3
  TIC value of compound, 5 min, R3: 2686035
[1]; rat liver microsomes, 15 min, replicate R1
  TIC value of compound, 15 min, R1: 283425
[1]; rat liver microsomes, 15 min, replicate R3
  TIC value of compound, 15 min, R3: 435364
[1]; rat liver microsomes, 30 min, replicate R1
  TIC value of compound, 30 min, R1: 0
[1]; rat liver microsomes, 30 min, replicate R3
  TIC value of compound, 30 min, R3: 35161
[1]; rat liver microsomes, 60 min, replicate R1
  TIC value of compound, 60 min, R1: 0
[1]; rat liver microsomes, 60 min, replicate R3
  TIC value of compound, 60 min, R3: 0
[1]; CL (ul/min/mg protein), R1, RLM CL, replicate R1, unrounded
  microsomal CLint: 278 µL/min/mg
[1]; CL (ul/min/mg protein), R2, RLM CL, replicate R2, unrounded
  microsomal CLint: 276 µL/min/mg
[1]; CL (ul/min/mg protein), R3, RLM CL, replicate R3, unrounded
  microsomal CLint: 234 µL/min/mg
[1]; Half Life (min) in RLMs (single replicates R1–R3), Fig. 5e source data
  half-life: 4.98 min
[1]; Half Life (min), R1, RLM metabolic stability, replicate R1
  half-life: 4.98 min
[1]; Half Life (min), R2, RLM metabolic stability, replicate R2
  half-life: 5.02 min
[1]; Half Life (min), R3, RLM metabolic stability, replicate R3
  half-life: 5.93 min
[1]; microsomes, Clearance (CL) in RLMs, calculated from half-life, mean and s.d. of three measurements
  microsomal CLint: 260 ± 20 µL/min/mg
[1]; microsomes, Half Life, RLM, individual replicates R1-R3
  half-life: 4.98 min
[1]; microsomes, Metabolic stability: Half life T1/2 (min), RLMs, mean and SD, three measurements
  half-life: 5.3 ± 0.4 min
[1]; microsomes, RLM CL, Average, average of R1-R3
  microsomal CLint: 263 µL/min/mg
[1]; microsomes, RLM CL, R1, RLM CL, replicate R1, summary block
  microsomal CLint: 278 µL/min/mg
[1]; microsomes, RLM CL, R2, RLM CL, replicate R2, summary block
  microsomal CLint: 276 µL/min/mg
[1]; microsomes, RLM CL, R3, RLM CL, replicate R3, summary block
  microsomal CLint: 234 µL/min/mg
Rat α-thrombin; purified peptide, mean and s.d. of three measurements, read-out: Ki rat α-thrombin
  Ki: 1.1 ± 0.41 nM
Rat α-thrombin; rat alpha thrombin, peptide 1.02E-03 uM
  Slope normalized to DMSO (proteolytic substrate cleavage over time): 71.6 and 67.2 and 58.0
Rat α-thrombin; rat alpha thrombin, peptide 1.04E+00 uM
  Slope normalized to DMSO (proteolytic substrate cleavage over time): 6.5 and 8.7 and 6.4
Rat α-thrombin; rat alpha thrombin, peptide 1.27E-04 uM
  Slope normalized to DMSO (proteolytic substrate cleavage over time): 89.6 and 85.7 and 79.9
Rat α-thrombin; rat alpha thrombin, peptide 1.30E-01 uM
  Slope normalized to DMSO (proteolytic substrate cleavage over time): 12.8 and 13.3 and 8.9
Rat α-thrombin; rat alpha thrombin, peptide 1.59E-05 uM
  Slope normalized to DMSO (proteolytic substrate cleavage over time): 102.5 and 122.8 and 94.2
Rat α-thrombin; rat alpha thrombin, peptide 1.63E-02 uM
  Slope normalized to DMSO (proteolytic substrate cleavage over time): 35.3 and 31.4 and 27.2
Rat α-thrombin; rat alpha thrombin, peptide 1.67E+01 uM
  Slope normalized to DMSO (proteolytic substrate cleavage over time): 4.8 and 5.1 and 4.2
Rat α-thrombin; rat alpha thrombin, peptide 2.03E-03 uM
  Slope normalized to DMSO (proteolytic substrate cleavage over time): 56.5 and 52.5 and 45.1
Rat α-thrombin; rat alpha thrombin, peptide 2.08E+00 uM
  Slope normalized to DMSO (proteolytic substrate cleavage over time): 5.0 and 7.7 and 6.7
Rat α-thrombin; rat alpha thrombin, peptide 2.54E-04 uM
  Slope normalized to DMSO (proteolytic substrate cleavage over time): 83.1 and 80.0 and 103.6
Rat α-thrombin; rat alpha thrombin, peptide 2.60E-01 uM
  Slope normalized to DMSO (proteolytic substrate cleavage over time): 12.7 and 11.2 and 6.9
Rat α-thrombin; rat alpha thrombin, peptide 3.18E-05 uM
  Slope normalized to DMSO (proteolytic substrate cleavage over time): 95.8 and 95.0 and 90.9
Rat α-thrombin; rat alpha thrombin, peptide 3.26E-02 uM
  Slope normalized to DMSO (proteolytic substrate cleavage over time): 29.1 and 26.7 and 19.1
Rat α-thrombin; rat alpha thrombin, peptide 3.33E+01 uM
  Slope normalized to DMSO (proteolytic substrate cleavage over time): 5.0 and 6.0 and 4.0
Rat α-thrombin; rat alpha thrombin, peptide 4.07E-03 uM
  Slope normalized to DMSO (proteolytic substrate cleavage over time): 51.9 and 49.0 and 39.9
Rat α-thrombin; rat alpha thrombin, peptide 4.17E+00 uM
  Slope normalized to DMSO (proteolytic substrate cleavage over time): 5.5 and 6.1 and 4.2
Rat α-thrombin; rat alpha thrombin, peptide 5.09E-04 uM
  Slope normalized to DMSO (proteolytic substrate cleavage over time): 76.1 and 71.5 and 67.7
Rat α-thrombin; rat alpha thrombin, peptide 5.21E-01 uM
  Slope normalized to DMSO (proteolytic substrate cleavage over time): 9.5 and 9.3 and 6.7
Rat α-thrombin; rat alpha thrombin, peptide 6.36E-05 uM
  Slope normalized to DMSO (proteolytic substrate cleavage over time): 93.9 and 94.0 and 87.7
Rat α-thrombin; rat alpha thrombin, peptide 6.51E-02 uM
  Slope normalized to DMSO (proteolytic substrate cleavage over time): 18.8 and 16.8 and 12.8
Rat α-thrombin; rat alpha thrombin, peptide 6.67E+01 uM
  Slope normalized to DMSO (proteolytic substrate cleavage over time): 5.5 and 6.5 and 3.1
Rat α-thrombin; rat alpha thrombin, peptide 7.95E-06 uM
  Slope normalized to DMSO (proteolytic substrate cleavage over time): 102.1 and 101.6 and 99.0
Rat α-thrombin; rat alpha thrombin, peptide 8.14E-03 uM
  Slope normalized to DMSO (proteolytic substrate cleavage over time): 40.8 and 35.1 and 27.1
Rat α-thrombin; rat alpha thrombin, peptide 8.33E+00 uM
  Slope normalized to DMSO (proteolytic substrate cleavage over time): 4.4 and 7.1 and 3.1
Rat α-thrombin; rat alpha thrombin, single replicates R1-R3, read-out: IC50, rat alpha thrombin inhibition
  IC50: 2.94 nM and 1.12 nM and 1.9 nM
Rat α-thrombin; rat alpha thrombin, single replicates R1-R3, read-out: Ki, rat alpha thrombin inhibition
  Ki: 1.63 nM (2×) and 0.618 nM (2×) and 1.05 nM
[2]; 50 μM, 12–18 h, acceptor concentration relative to equilibrium
  PAMPA permeability: % permeability: 47 ± 12%
[2]; PAMPA, pH 7.4
  Papp at 50 μM: 6.17 ×10⁻⁶ cm/s
[2]; top well sample vs theoretical equilibrium sample (TIC), average of R1-R3
  Permeability% Average: 46.9%
[2]; top well sample vs theoretical equilibrium sample (TIC), single replicates R1-R3
  Permeability%: 48.47% and 34.58% and 57.51%
Human α-thrombin; human alpha thrombin, peptide 1.02E-03 uM
  Slope normalized to DMSO (proteolytic substrate cleavage over time): 91.7 and 75.0 and 84.5
Human α-thrombin; human alpha thrombin, peptide 1.04E+00 uM
  Slope normalized to DMSO (proteolytic substrate cleavage over time): 9.7 and 14.2 and 12.5
Human α-thrombin; human alpha thrombin, peptide 1.27E-04 uM
  Slope normalized to DMSO (proteolytic substrate cleavage over time): 92.1 and 89.4 and 95.4
Human α-thrombin; human alpha thrombin, peptide 1.30E-01 uM
  Slope normalized to DMSO (proteolytic substrate cleavage over time): 16.4 and 22.7 and 18.5
Human α-thrombin; human alpha thrombin, peptide 1.59E-05 uM
  Slope normalized to DMSO (proteolytic substrate cleavage over time): 104.8 and 95.5 and 101.0
Human α-thrombin; human alpha thrombin, peptide 1.63E-02 uM
  Slope normalized to DMSO (proteolytic substrate cleavage over time): 54.1 and 48.1 and 57.3
Human α-thrombin; human alpha thrombin, peptide 1.67E+01 uM
  Slope normalized to DMSO (proteolytic substrate cleavage over time): 4.0 and 6.4 and 1.8
Human α-thrombin; human alpha thrombin, peptide 2.03E-03 uM
  Slope normalized to DMSO (proteolytic substrate cleavage over time): 79.8 and 80.8 and 68.0
Human α-thrombin; human alpha thrombin, peptide 2.08E+00 uM
  Slope normalized to DMSO (proteolytic substrate cleavage over time): 5.1 and 8.3 and -0.433
Human α-thrombin; human alpha thrombin, peptide 2.54E-04 uM
  Slope normalized to DMSO (proteolytic substrate cleavage over time): 93.1 and 85.9 and 92.0
Human α-thrombin; human alpha thrombin, peptide 2.60E-01 uM
  Slope normalized to DMSO (proteolytic substrate cleavage over time): 11.6 and 16.8 and 13.0
Human α-thrombin; human alpha thrombin, peptide 3.18E-05 uM
  Slope normalized to DMSO (proteolytic substrate cleavage over time): 103.7 and 94.2 and 96.3
Human α-thrombin; human alpha thrombin, peptide 3.26E-02 uM
  Slope normalized to DMSO (proteolytic substrate cleavage over time): 46.3 and 39.7 and 47.4
Human α-thrombin; human alpha thrombin, peptide 3.33E+01 uM
  Slope normalized to DMSO (proteolytic substrate cleavage over time): -4.9 and 8.0 and -5.2
Human α-thrombin; human alpha thrombin, peptide 4.07E-03 uM
  Slope normalized to DMSO (proteolytic substrate cleavage over time): 68.4 and 49.8 and 67.1
Human α-thrombin; human alpha thrombin, peptide 4.17E+00 uM
  Slope normalized to DMSO (proteolytic substrate cleavage over time): 7.1 and 16.4 and 0.5
Human α-thrombin; human alpha thrombin, peptide 5.09E-04 uM
  Slope normalized to DMSO (proteolytic substrate cleavage over time): 91.3 and 86.2 and 83.7
Human α-thrombin; human alpha thrombin, peptide 5.21E-01 uM
  Slope normalized to DMSO (proteolytic substrate cleavage over time): 9.0 and 17.4 and 10.1
Human α-thrombin; human alpha thrombin, peptide 6.36E-05 uM
  Slope normalized to DMSO (proteolytic substrate cleavage over time): 103.6 and 90.9 and 101.0
Human α-thrombin; human alpha thrombin, peptide 6.51E-02 uM
  Slope normalized to DMSO (proteolytic substrate cleavage over time): 26.8 and 23.7 and 23.8
Human α-thrombin; human alpha thrombin, peptide 6.67E+01 uM
  Slope normalized to DMSO (proteolytic substrate cleavage over time): 5.5 and 8.8 and 5.2
Human α-thrombin; human alpha thrombin, peptide 7.95E-06 uM
  Slope normalized to DMSO (proteolytic substrate cleavage over time): 105.4 and 96.7 and 100.1
Human α-thrombin; human alpha thrombin, peptide 8.14E-03 uM
  Slope normalized to DMSO (proteolytic substrate cleavage over time): 56.5 and 45.5 and 52.6
Human α-thrombin; human alpha thrombin, peptide 8.33E+00 uM
  Slope normalized to DMSO (proteolytic substrate cleavage over time): -1.1 and 9.3 and 3.5
Human α-thrombin; human alpha thrombin, single replicates R1-R3, read-out: IC50, human alpha thrombin inhibition
  IC50: 13.6 nM and 7.3 nM and 13.8 nM
Human α-thrombin; human alpha thrombin, single replicates R1-R3, read-out: Ki, human alpha thrombin inhibition
  Ki: 10.4 nM (2×) and 5.65 nM (2×) and 10.6 nM (2×)
Human α-thrombin; purified peptide, mean and s.d. of three measurements, read-out: Ki human α-thrombin
  Ki: 8.9 ± 2.3 nM
Porcine pancreatin; average of R1-R3
  SIF stability, Residual peptide Average: 82.44
Porcine pancreatin; single replicates R1-R3
  SIF stability, Residual peptide: 91.81 and 71.29 and 84.22
[3]
  remaining at 8 h: 82 ± 10%
